Laboratory results reported in ChEMBL document CHEMBL4311949, “Design, Synthesis, Evaluation, and Structural Studies of C2-Symmetric Small Molecule Inhibitors of Programmed Cell Death-1/Programmed Death-Ligand 1 Protein-Protein Interaction” (J Med Chem, 2019).
The source made the active and inactive calls. No cut-off for these calls is given here.

Tests used:
[1] = target: T1, Programmed cell death protein 1/Programmed cell death 1 ligand 1 (Homo sapiens, UniProt Q9NZQ7); experiment: Inhibition of human Fc-tagged PD1 N-terminal domain (Leu25 to Gln167 residues) expressed in HEK293 cells/human His-tagged PDL1 (Phe19 to Arg238 residues) expressed in HEK293 cells protein-protein interaction after 1 hr by APC-labeled anti-His antibody/Eu-labeled anti-human IgG based HTRF assay; assay type: cell-based
T1 sequence (Q15116 whole entry, the tested form may be a part): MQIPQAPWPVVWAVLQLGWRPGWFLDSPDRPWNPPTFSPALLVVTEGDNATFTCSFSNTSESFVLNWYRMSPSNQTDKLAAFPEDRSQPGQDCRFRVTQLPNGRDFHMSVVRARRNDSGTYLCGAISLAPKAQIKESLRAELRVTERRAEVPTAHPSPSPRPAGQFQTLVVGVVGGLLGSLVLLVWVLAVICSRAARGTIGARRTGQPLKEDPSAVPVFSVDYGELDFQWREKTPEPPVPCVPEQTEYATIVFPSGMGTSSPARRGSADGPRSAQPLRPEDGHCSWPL
T1 sequence (Q9NZQ7 whole entry, the tested form may be a part): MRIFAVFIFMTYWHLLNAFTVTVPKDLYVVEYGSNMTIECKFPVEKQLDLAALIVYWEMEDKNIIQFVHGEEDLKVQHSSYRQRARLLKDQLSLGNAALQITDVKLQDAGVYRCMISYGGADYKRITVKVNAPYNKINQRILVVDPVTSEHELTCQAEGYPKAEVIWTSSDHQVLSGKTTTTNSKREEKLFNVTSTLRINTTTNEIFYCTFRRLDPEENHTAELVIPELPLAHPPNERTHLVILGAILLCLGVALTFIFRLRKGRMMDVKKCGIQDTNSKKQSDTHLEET

[2] = Cytotoxicity against CHOK1 cells stably expressing human PDL1 co-cultured with human Jurkat T cell expressing human PD1 measured after 24 hrs by XTT assay; assay type: cell-based, Cricetulus griseus, CHO-K1; details: chinese hamster; read-out: MNCC
[3] = Cytotoxicity against human Jurkat T cell expressing human PD1 co-cultured with CHOK1 cells stably expressing human PDL1 measured after 24 hrs by XTT assay; assay type: cell-based; details: read-out: MNCC
[4] = Cytotoxicity against human Jurkat T cell expressing human PD1 co-cultured with CHOK1 cells stably expressing human PDL1 assessed as growth inhibition measured after 24 hrs by XTT assay; assay type: cell-based
[5] = Cytotoxicity against CHOK1 cells stably expressing human PDL1 co-cultured with human Jurkat T cell expressing human PD1 assessed as growth inhibition measured after 24 hrs by XTT assay; assay type: cell-based, Cricetulus griseus, CHO-K1; details: chinese hamster
[6] = Toxicity weighted activity index, ratio of GI50 for cytotoxicity against CHOK1 cells stably expressing human PDL1 co-cultured with human Jurkat T cell expressing human PD1 to EC50 for inhibition of PD1/PDL1 interaction in human Jurkat cells co-cultured with human U2OS cells expressing PDL1; assay type: cell-based; details: chinese hamster; read-out: Ratio GI50/EC50
[7] = target: Programmed cell death 1 ligand 1 (Homo sapiens) (UniProt Q9NZQ7); experiment: Binding affinity to 15N-labelled human PDL1 assessed as induction of protein oligomerization by 1H-15N HMQC spectra analysis
Programmed cell death 1 ligand 1 (Homo sapiens), sequence (Q9NZQ7 whole entry): as the sequence (Q9NZQ7 whole entry, the tested form may be a part) above

[8] = target: T1, Programmed cell death protein 1/Programmed cell death 1 ligand 1; experiment: (§1) Inhibition of PD1/PDL1 interaction in human Jurkat cells co-cultured with human U2OS cells expressing PDL1 assessed as reduction in SHP1 recruitment preincubated with U2OS cells for 60 mins followed by Jurkat cell addition and measured after 2 hrs by Pathhunter chemiluminescent assay; assay type: cell-based
[9] = target: Programmed cell death protein 1/Programmed cell death 1 ligand 1 (Homo sapiens) (UniProt Q15116+Q9NZQ7); experiment: as §1; assay type: cell-based
[10] = target: T1, Programmed cell death protein 1/Programmed cell death 1 ligand 1; experiment: Inhibition of human PD1 stably expressed in human Jurkat T cells co-expressing NFAT-induced luciferase/human PDL1 stably expressed in CHOK1 cells co-expressing aAPC protein-protein interaction assessed as increase in NFAT signaling measured after 6 hrs by bio-glo luciferase reporter gene assay; assay type: cell-based
[11] = target: Programmed cell death 1 ligand 1 (Homo sapiens) (UniProt Q9NZQ7); experiment: Binding affinity to 15N-labelled human PDL1 assessed as induction of oligomerization by 1H-NMR spectra analysis
[12] = (§2) Toxicity weighted activity index, ratio of GI50 for Cytotoxicity against human Jurkat T cell expressing human PD1 co-cultured with CHOK1 cells stably expressing human PDL1 to EC50 for inhibition of human PD1 stably expressed in human Jurkat T cells co-expressing NFAT-induced luciferase/human PDL1 stably expressed in CHOK1 cells co-expressing aAPC protein-protein interaction; assay type: cell-based; details: read-out: Ratio GI50/EC50
[13] = Toxicity weighted activity index, ratio of GI50 for Cytotoxicity against human Jurkat T cell expressing human PD1 co-cultured with CHOK1 cells stably expressing human PDL1 to EC50 for inhibition of PD1/PDL1 interaction in human Jurkat cells co-cultured with human U2OS cells expressing PDL1; assay type: cell-based; details: read-out: Ratio GI50/EC50
[14] = as §2, with “cytotoxicity” for “Cytotoxicity”, “against CHOK1 cells stably expressing human PDL1 co-cultured with” for “against”, “PD1” for “PD1 co-cultured with CHOK1 cells stably expressing human PDL1”; assay type: cell-based; details: chinese hamster; read-out: Ratio GI50/EC50

Row | SMILES | IC50 [1] [nM] | MNTC at 24 h [2] [nM] | MNTC at 24 h [3] [nM] | GI50 at 24 h [4] [µM] | GI50 at 24 h [5] [µM] | Activity [7] | Activity [11] | further results
1 | CC(=O)NCCNCc1ccc(OCc2ccc(COc3ccc(CNCCNC(C)=O)c(OCc4cncc(C#N)c4)c3)c3ccccc23)cc1OCc1cncc(C#N)c1 | 462 |  |  |  |  |  |  | 
2 | COc1nc(OCc2cccc(-c3ccccc3)c2C)ccc1CNCCNC(C)=O |  | 2560 | 2560 | 4.5 | 4.5 |  |  | 
3 | CC(=O)NCCNCc1ccc(OCc2ccc(COc3ccc(CNCCNC(C)=O)c(OCc4cncc(C#N)c4)c3)cc2)cc1OCc1cncc(C#N)c1 | 8240 |  |  |  |  |  |  | 
4 | COc1nc(OCc2cccc(-c3cccc(COc4ccc(CNCCNC(C)=O)c(OC)n4)c3C)c2C)ccc1CNCCNC(C)=O | 25 | 2560 | 2560 | 3.1 | 3.1 | Active | Active | selectivity ratio [6]: 9.3; EC50 [8]: 334 nM; inhibition [9]: Dose-dependent effect; EC50 [10]: 4.21 µM; selectivity ratio [12]: 0.7; selectivity ratio [13]: 9.3; selectivity ratio [14]: 0.7
5 | CC(=O)NCCNCc1cc(C)c(OCc2cccc(-c3ccccc3)c2C)cc1OCc1cncc(C#N)c1 | 2.5 | 2560 | 2560 | 8.1 | 8.1 | Active | Active | selectivity ratio [6]: 37; EC50 [8]: 219 nM; EC50 [10]: 3 µM; selectivity ratio [12]: 2.7; selectivity ratio [13]: 37; selectivity ratio [14]: 2.7
6 | CC(=O)NCCNCc1ccc(OCc2ccc3cc(COc4ccc(CNCCNC(C)=O)c(OCc5cncc(C#N)c5)c4)ccc3c2)cc1OCc1cncc(C#N)c1 | 1170 |  |  |  |  |  |  | 
7 | CCNCc1cc(C)c(OCc2cccc(-c3cccc(COc4cc(OCc5cncc(C#N)c5)c(CNCC)cc4C)c3C)c2C)cc1OCc1cncc(C#N)c1 | 3.8 |  |  |  |  |  |  | 
8 | CC(=O)NCCNCc1cc(C)c(OCc2cccc(-c3cccc(COc4cc(OCc5cncc(C#N)c5)c(CNCCNC(C)=O)cc4C)c3C)c2C)cc1OCc1cncc(C#N)c1 |  | 2560 | 2560 | 11.8 | 11.8 | Active | Active | inhibition [9]: Dose-dependent effect
9 | CCNCc1cc(C)c(OCc2cccc(-c3ccccc3)c2C)cc1OCc1cncc(C#N)c1 | 2.2 |  |  |  |  |  |  | 
10 | CC(=O)NCCNCc1ccc(OCc2cccc(COc3ccc(CNCCNC(C)=O)c(OCc4cncc(C#N)c4)c3)c2)cc1OCc1cncc(C#N)c1 | > 10000 |  |  |  |  |  |  | 
